17 compounds from patent US7994185B2, “Benzene sulfonamide thiazole and oxazole compounds” (Glaxo Smith Kline LLC, priority 2008, dated 2011) can be followed below.

Molecules are shown by their SMILES. Read-outs that look alike come from different tables or passages of the source.

In assay [1] the target is T1, BRAFV600E full-length (amino acids 2-766) (Homo sapiens, UniProt P15056, V600E).
T1 construct: His6-tagged BRAFV600E full-length (amino acids 2-766); His6; made in house; host or cells: baculovirus expression system (insect cells)
The assay is described as follows: B-Raf Accelerated MEK ATPase assay (BRAMA). The assay is classed as biochemical. Put shortly: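 Coupled-enzyme readout: ADP generated by MEK-mediated ATP hydrolysis, uncoupled from ERK phosphorylation, is linked to NADH oxidation through pyruvate kinase and lactate dehydrogenase.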

Assay [2] has as its system Human colon tumor cells (Colo205). Nature of the assay: Cell growth inhibition assay (CellTiter-Glo), Colo205. The assay is classed as cell-based. Put shortly:
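Growth is estimated from total cellular ATP measured by CellTiter-Glo luminescence after a 3-day compound exposure at 37 °C. Compounds are tested as 1:3 dilution series in 0.2% final DMSO, with inhibition expressed relative to vehicle-treated wells.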
For orientation: ATP-based viability assays read luminescence as a measure of living cells.

For assay [3], the system named is Human melanoma cancer cells (SK-MEL-28). Nature of the assay: Cell growth inhibition assay (CellTiter-Glo), SK-MEL-28. Format: cell-based.
[4] abbreviates: B-Raf pIC50, Table 1b, later runs, average pIC50 for the one or more runs, categorized.
The mark [5] stands for this setting: COLO 205, Table 2b, later runs, average for the one or more runs, categorized, read-out: IC50 for Colo205.
Setting [6] is: SK-MEL-28, Table 3b, later runs, average for the one or more runs, categorized, read-out: IC50 for SK-MEL-28.
The mark [7] stands for this setting: B-Raf Activity, Table 1a, highest pIC50 for the one or more runs, categorized.
The mark [8] stands for this setting: COLO 205, 72 h, Table 2a, 3 days incubation, read-out: Activity in Colo205 Tumor Cells.
[9] abbreviates: SK-MEL-28, 72 h, Table 3a, 3 days incubation, read-out: Activity in SK-MEL-28 Tumor Cells.
[10] abbreviates: Table 1b, later runs, average pIC50 for the one or more runs, categorized, read-out: B-Raf pIC50 (converted).

T1 sequence (P15056 2-766 V600E): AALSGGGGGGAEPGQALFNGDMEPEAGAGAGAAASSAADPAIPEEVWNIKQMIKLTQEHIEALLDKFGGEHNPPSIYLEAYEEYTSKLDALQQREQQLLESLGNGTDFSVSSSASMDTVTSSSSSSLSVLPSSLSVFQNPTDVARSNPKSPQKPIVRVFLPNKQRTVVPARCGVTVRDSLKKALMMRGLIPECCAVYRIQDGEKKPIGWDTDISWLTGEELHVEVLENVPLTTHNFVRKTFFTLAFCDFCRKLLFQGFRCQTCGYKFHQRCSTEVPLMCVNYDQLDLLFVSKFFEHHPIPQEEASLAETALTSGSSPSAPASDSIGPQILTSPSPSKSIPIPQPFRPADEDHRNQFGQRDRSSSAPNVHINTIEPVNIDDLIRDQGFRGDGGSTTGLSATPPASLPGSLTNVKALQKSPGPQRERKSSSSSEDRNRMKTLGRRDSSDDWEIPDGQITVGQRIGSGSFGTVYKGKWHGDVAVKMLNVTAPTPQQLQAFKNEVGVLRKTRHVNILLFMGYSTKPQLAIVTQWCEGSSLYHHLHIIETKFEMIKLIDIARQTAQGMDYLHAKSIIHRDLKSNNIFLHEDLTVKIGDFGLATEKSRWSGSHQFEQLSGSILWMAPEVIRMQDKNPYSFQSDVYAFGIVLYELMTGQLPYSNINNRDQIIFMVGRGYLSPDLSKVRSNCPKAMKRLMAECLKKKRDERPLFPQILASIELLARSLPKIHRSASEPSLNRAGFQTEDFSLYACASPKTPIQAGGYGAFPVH

Consider `CC(C)(C)c1nc(-c2cccc(NS(=O)(=O)c3ccoc3)c2Cl)c(-c2ccnc(N)n2)s1` [Example 264, N-{3-[5-(2-amino-4-pyrimidinyl)-2-(1,1-dimethylethyl)-1,3-thiazol-4-yl]-2-chlorophenyl}-3-furansulfonamide], for which the IC50 was at most 3.16 nM in assay [1] (setting [4]), under 100 nM in assay [2] (setting [5]) and under 100 nM in assay [3] (setting [6]).
As to `CC(C)c1nc(-c2ccc(F)c(NS(=O)(=O)c3c(F)cccc3F)c2)c(-c2ccnc(NCCN(C)C)n2)s1` [Example 161], the IC50 in assay [1] (setting [7]) was 100 to 1000 nM; in assay [1] (setting [4]) it was 31.6 to 1000 nM; in assay [2] (setting [8]), over 1000 nM; in assay [2] (setting [5]), 1000 to 10000 nM; in assay [3] (setting [9]), over 1000 nM; in assay [3] (setting [6]), 1000 to 10000 nM.
Turning to `Cc1nccc(-c2sc(N3CCOCC3)nc2-c2cccc(NS(=O)(=O)c3ccoc3)c2F)n1` [Example 272, N-{2-fluoro-3-[5-(2-methyl-4-pyrimidinyl)-2-(4-morpholinyl)-1,3-thiazol-4-yl]phenyl}-3-furansulfonamide], the values for the IC50 in assay [1] (setting [10]), in assay [2] (setting [5]) and in assay [3] (setting [6]) were 3.16 to 31.6 nM, 100 to 1000 nM and under 100 nM, respectively.
Turning to `Cc1nccc(-c2sc(C(C)(C)C)nc2-c2cccc(NS(=O)(=O)c3cccc(F)c3)c2F)n1` [Example 222, N-{3-[2-(1,1-dimethylethyl)-5-(2-methyl-4-pyrimidinyl)-1,3-thiazol-4-yl]-2-fluorophenyl}-3-fluorobenzenesulfonamide], the IC50 in assay [1] (setting [10]) was 3.16 to 31.6 nM; in assay [2] (setting [5]), under 100 nM; in assay [3] (setting [6]), under 100 nM.
Consider `CC(C)CNc1nccc(-c2sc(C3CCOCC3)nc2-c2ccc(F)c(NS(=O)(=O)c3cc(F)ccc3F)c2)n1` [Example 69, 2,5-Difluoro-N-{2-fluoro-5-[5-{2-[(2-methylpropyl)amino]-4-pyrimidinyl}-2-(tetrahydro-2H-pyran-4-yl)-1,3-thiazol-4-yl]phenyl}benzenesulfonamide], for which the IC50 is under 100 nM in assay [1] (setting [7]); at most 3.16 nM in assay [1] (setting [4]); 100 to 1000 nM in assay [2] (setting [8]); 100 to 1000 nM in assay [2] (setting [5]); 100 to 1000 nM in assay [3] (setting [9]); 100 to 1000 nM in assay [3] (setting [6]).
In the case of `CC(C)CNc1nccc(-c2sc(C(C)(C)C)nc2-c2cccc(NS(=O)(=O)c3cc(F)ccc3F)c2Cl)n1` [Example 23, N-[2-Chloro-3-(2-(1,1-dimethylethyl)-5-{2-[(2-methylpropyl)amino]-4-pyrimidinyl}-1,3-thiazol-4-yl)phenyl]-2,5-difluorobenzenesulfonamide], the IC50 in assay [1] (setting [7]) is under 100 nM; in assay [1] (setting [10]), 3.16 to 31.6 nM; in assay [2] (setting [8]), 100 to 1000 nM; in assay [2] (setting [5]), 100 to 1000 nM; in assay [3] (setting [9]), 100 to 1000 nM; in assay [3] (setting [6]) it was 100 to 1000 nM.
For the compound `CC(C)(C)c1nc(-c2cccc(NS(=O)(=O)c3cc(F)ccc3F)c2F)c(-c2ccnc(NCCN3CCCC3=O)n2)s1` [Example 97, N-{3-[2-(1,1-Dimethylethyl)-5-(2-{[2-(2-oxo-1-pyrrolidinyl)ethyl]amino}-4-pyrimidinyl)-1,3-thiazol-4-yl]-2-fluorophenyl}-2,5-difluorobenzenesulfonamide], the IC50 in assay [1] (setting [7]) is under 100 nM; in assay [1] (setting [4]) it was at most 3.16 nM; in assay [2] (setting [8]), under 100 nM; in assay [2] (setting [5]) it was 100 to 1000 nM; in assay [3] (setting [9]) it was under 100 nM; in assay [3] (setting [6]), under 100 nM.
For `CNc1nccc(-c2sc(C(C)C)nc2-c2cccc(NS(=O)(=O)c3cccc(F)c3)c2)n1` [Example 86, 3-Fluoro-N-{3-[5-[2-(methylamino)-4-pyrimidinyl]-2-(1-methylethyl)-1,3-thiazol-4-yl]phenyl}benzenesulfonamide], the IC50 is under 100 nM in assay [1] (setting [7]); 31.6 to 1000 nM in assay [1] (setting [4]); over 1000 nM in assay [2] (setting [8]); 1000 to 10000 nM in assay [2] (setting [5]); over 1000 nM in assay [3] (setting [9]); 1000 to 10000 nM in assay [3] (setting [6]).
Turning to `CC(C)c1nc(-c2ccc(F)c(NS(=O)(=O)c3c(F)cccc3F)c2)c(-c2ccnc(NCCOCCO)n2)s1` [Example 166], the IC50 in assay [1] (setting [4]) lay in the range of 31.6 to 1000 nM; in assay [2] (setting [8]), 100 to 1000 nM; in assay [2] (setting [5]) it was 100 to 1000 nM; in assay [3] (setting [9]) it was 100 to 1000 nM; in assay [3] (setting [6]) it was 100 to 1000 nM.
On to `CC(C)c1nc(-c2ccc(F)c(NS(=O)(=O)c3c(F)cccc3F)c2)c(-c2ccnc(NCCO)n2)s1` [Example 160], for which the IC50 in assay [1] (setting [7]) was 100 to 1000 nM; in assay [1] (setting [4]) it was 31.6 to 1000 nM; in assay [2] (setting [8]) it was 100 to 1000 nM; in assay [2] (setting [5]), 100 to 1000 nM; in assay [3] (setting [9]) it was 100 to 1000 nM; in assay [3] (setting [6]), 100 to 1000 nM.
`Cc1cccc(S(=O)(=O)Nc2cccc(-c3nc(C(C)(C)C)sc3-c3ccnc(N)n3)c2F)c1` [Example 147]: the IC50 in assay [1] (setting [7]) was under 100 nM; in assay [1] (setting [4]), 31.6 to 1000 nM; in assay [2] (setting [8]), 100 to 1000 nM; in assay [2] (setting [5]), 100 to 1000 nM; in assay [3] (setting [9]), 100 to 1000 nM; in assay [3] (setting [6]) it was 100 to 1000 nM.
Regarding `O=C1CCCN1CCCNc1nccc(-c2sc(N3CCOCC3)nc2-c2cccc(NS(=O)(=O)c3cc(F)ccc3F)c2F)n1` [Example 188], the IC50 was under 100 nM in assay [1] (setting [7]); at most 3.16 nM in assay [1] (setting [4]); under 100 nM in assay [2] (setting [8]); under 100 nM in assay [2] (setting [5]); under 100 nM in assay [3] (setting [9]); under 100 nM in assay [3] (setting [6]).
With `Cc1nccc(-c2sc(C(C)(C)C)nc2-c2cccc(NS(=O)(=O)c3ccoc3)c2Cl)n1` [Example 270, N-{2-chloro-3-[2-(1,1-dimethylethyl)-5-(2-methyl-4-pyrimidinyl)-1,3-thiazol-4-yl]phenyl}-3-furansulfonamide], the IC50 in assay [1] (setting [4]) was at most 3.16 nM; in assay [2] (setting [5]), 100 to 1000 nM; in assay [3] (setting [6]), 100 to 1000 nM.
On to `CC(C)CNc1nccc(-c2sc(C(C)(C)C)nc2-c2cccc(NS(=O)(=O)c3cc(F)ccc3F)c2)n1` [Example 3, N-[3-(2-(1,1-Dimethylethyl)-5-{2-[(2-methylpropyl)amino]-4-pyrimidinyl}-1,3-thiazol-4-yl)phenyl]-2,5-difluorobenzenesulfonamide], for which the IC50 is under 100 nM in assay [1] (setting [7]); 3.16 to 31.6 nM in assay [1] (setting [10]); under 100 nM in assay [2] (setting [8]); under 100 nM in assay [2] (setting [5]); under 100 nM in assay [3] (setting [9]); under 100 nM in assay [3] (setting [6]).
Turning to `CC(C)c1nc(-c2ccc(F)c(NS(=O)(=O)c3c(F)cccc3F)c2)c(-c2ccnc(NCCCN3CCOCC3)n2)s1` [Example 7, 2,6-Difluoro-N-{2-fluoro-5-[2-(1-methylethyl)-5-(2-{[3-(4-morpholinyl)propyl]amino}-4-pyrimidinyl)-1,3-thiazol-4-yl]phenyl}benzenesulfonamide], the IC50 in assay [1] (setting [7]) is 100 to 1000 nM; in assay [1] (setting [4]) it was 31.6 to 1000 nM; in assay [2] (setting [8]) it was over 1000 nM; in assay [2] (setting [5]), 1000 to 10000 nM; in assay [3] (setting [9]) it was over 1000 nM; in assay [3] (setting [6]), 1000 to 10000 nM.
For `CC(C)c1nc(-c2ccc(F)c(NS(=O)(=O)c3c(F)cccc3F)c2)c(-c2ccnc(NCCCN(C)C)n2)s1` [Example 163], the IC50 in assay [1] was over 1000 nM; in assay [2] (setting [8]), over 1000 nM; in assay [2] (setting [5]), 1000 to 10000 nM; in assay [3] (setting [9]), over 1000 nM.
For `CC(C)CNc1nccc(-c2sc(C(C)C)nc2-c2cccc(NS(=O)(=O)c3ccco3)c2F)n1` [Example 154], the IC50 was under 100 nM in assay [1] (setting [7]); at most 3.16 nM in assay [1] (setting [4]); 100 to 1000 nM in assay [2] (setting [8]); 100 to 1000 nM in assay [2] (setting [5]); 100 to 1000 nM in assay [3] (setting [9]); 100 to 1000 nM in assay [3] (setting [6]).
